Test results: patent publication US12624018B1, “Inhibitors of RIPK2 and medical uses thereof” (Odyssey Therapeutics, Inc., priority 2022, dated 2026)
Structures can show the parent of a compound that is named as a salt. Where two headings read alike, the source gives them in different places.

Tests used:
human NOD2 signaling = assay: Inhibition of human NOD2 signaling in HEK-Blue-hNOD2 cells (L18-MDP stimulated, SEAP reporter); type: cell-based; details: NOD2 ligand stimulation, SEAP reporter, read-out: hNOD2 IC50
Procedure: Materials: Human NOD32-expressing 1TEK293 cells, HEK-Blue™-hNOD2 cells, were developed by Invivogen (catalogue number: hkb-hnod2) using co-transfection of the human NOD2 gene and an optimized secreted embryonic alkaline phosphatase (SEAP) reporter gene into HTEK293 cells. The cell maintenance medium consisted of DMEM (Giboc, 21063-029), heat inactivated FBS, penicillin (100 U/mL), streptomycin (100 μg/mL), Normocin (100 μg/mL), Blasticidin (30 μg/mL), and Zeocin (100 μg/mL). HEK-Blue™-hNOD2 cells were transferred to assay medium consisting of DMEM (Giboc, 21063-029), heat inactivated FBS, penicillin (100 U/mL) and streptomycin (100 μg/mL) prior to stimulation. Stimulation with a NOD2 ligand, L18-MDP (Invivogen, catalogue number: tlrl-lmdp) activated NF-κB and AP-1 which induced the production of SEAP. Levels of SEAP were determined with HEK-Blue™ Detection (referred to as QUANTI-Blue solution), a cell culture medium that allows for real-time detection of SEAP. QUANTI-Blue solution was prepared by adding 1 mL of QB reagent and 1 mL of QB buffer to 98 mL of sterile H2O. Test compounds were prepared into a 10 mM DMSO solution and were serially diluted into 10 points using a 3-fold dilution in a 384 well plate using a TECAN EVO200.
Method: In a 384 well plate, 40 nL of test compound was dispensed using Echo550. HEK-Blue™-hNOD2 cells (Invivogen) were prepared into a cell suspension and 40 μL of the cell suspension (12500 cells per well) was dispensed into the 384 well plate. To activate NOD2 signaling, 40 nL of L18-MDP (final concentration of 0.5 ng/mL) was added and the plate was incubated at 37° C. in a CO2 incubator for 24 hours. After the 24-hour incubation, 5 μL of the induced HEK-Blue hNOD2 cell supernatant was transferred to a new 384-well plate, centrifuged, and 45 μL of QUANTI-Blue solution was added per well and incubated for 3 hours at 37° C. SEAP levels were measured using an Ensight at 620 nm. Percent inhibition of NOD2 signaling was determined using the following equation: (high control−test compound signal)/(High control−low control)×100. The reaction high control was determined using wells with DMSO, cells, L18-MDP, and QUANTI-Blue solution. The reaction low control was determined using wells with DMSO, cells, and QUANTI-Blue solution. 4-parametric curve fit was used to determine the test compound concentration that results in 50% reduction of L18-MDP-driven human NOD2 signaling.
Using the assay described above, inhibition of hNOD2 signaling was also evaluated for GSK 2983559 (Haile at al., J. Med. Chem. 2019, 62, 14, 6482-6494), a known RIPK2 kinase inhibitor: […]

RIPK2 enzyme = target: T1, RIPK2 enzyme (Homo sapiens, UniProt O43353); assay: RIPK2 inhibition (ADP-Glo Kinase Assay); type: biochemical; details: RIPK2 5 nM, ATP 150 μM, MBP substrate, read-out: RIPK2 IC50
T1 construct: purchased Carna 09-128
Outline: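 Swine MBP substrate; compound and 5 nM RIPK2 first mixed for 30 min at room temperature; buffer pH 7.5 HEPES 50 mM with 10 mM MgCl2, 2 mM DTT, 1 mM EGTA, Brij-35, BSA.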

[1] = Homo sapiens, HEK-Blue hNOD2, HEK-Blue-hNOD2 cells

T1 sequence (O43353 1-299 limits assumed): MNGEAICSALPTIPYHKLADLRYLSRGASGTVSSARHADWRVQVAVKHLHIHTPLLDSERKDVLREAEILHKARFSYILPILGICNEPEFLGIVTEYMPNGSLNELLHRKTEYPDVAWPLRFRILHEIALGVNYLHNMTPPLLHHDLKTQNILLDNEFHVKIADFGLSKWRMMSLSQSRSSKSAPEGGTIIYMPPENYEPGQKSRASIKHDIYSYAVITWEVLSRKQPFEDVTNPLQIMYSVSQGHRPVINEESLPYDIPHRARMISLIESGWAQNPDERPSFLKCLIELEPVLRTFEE

SMILES	IC50 (human NOD2 signaling; [1]) [nM]	IC50 (RIPK2 enzyme) [nM]	IC50 (human NOD2 signaling; HEK-Blue-hNOD2 cells) [nM]
Cc1cc(CC(=O)Nc2cnn(C(C)C(F)(F)F)c2)ccc1Oc1ccnc2ccc(S(C)(=O)=O)cc12 (single isomer, unassigned) [Compound 594, 2-(3-methyl-4-((6-(methylsulfonyl)quinolin-4-yl)oxy)phenyl)-N-(1-(1,1,1-trifluoropropan-2-yl)-1H-pyrazol-4-yl)acetamide]	27	< 2.5	–
[2H]C([2H])([2H])NC(=O)c1cc2c(Oc3ccc(CC(=O)Nc4cnn(C(C)(C)C)c4)nc3C)ccnc2cc1F [Compound 614, 4-((6-(2-((1-(tert-butyl)-1H-pyrazol-4-yl)amino)-2-oxoethyl)-2-methylpyridin-3-yl)oxy)-7-fluoro-N-(methyl-d3)quinoline-6-carboxamide]	3.7	< 2.5	–
N=S(=O)(c1ccc2nccc(Oc3cc(F)c(CC(=O)Nc4cnn(C56CC(C5)C6)c4)cc3Cl)c2c1)C1CC1 (single isomer, unassigned) [Compound 531, N-(1-(bicyclo[1.1.1]pentan-1-yl)-1H-pyrazol-4-yl)-2-(5-chloro-4-((6-(cyclopropanesul-fonimidoyl)quinolin-4-yl)oxy)-2-fluorophenyl) acetamide]	–	< 2.5	41.6
Cc1cc(CC(=O)Nc2cnn(C(C)(C)C)c2)c(F)cc1Oc1ccnc2ccc(-c3ncccc3C(F)(F)F)cc12 [Compound 522, N-(1-(tert-butyl)-1H-pyrazol-4-yl)-2-(2-fluoro-5-methyl-4-((6-(3-(trifluoromethyl)pyridin-2-yl)quinolin-4-yl)oxy)phenyl)acetamide]	25.8	8.6	–
N=S(=O)(c1ccc2nccc(Oc3cc(F)c(CC(=O)Nc4cnn(C56CC(C5)C6)c4)cc3Cl)c2c1)C1CC1 (single isomer, unassigned) [Compound 532, N-(1-(bicyclo[1.1.1]pentan-1-yl)-1H-pyrazol-4-yl)-2-(5-chloro-4-((6-(cyclopropanesul-fonimidoyl)quinolin-4-yl)oxy)-2-fluorophenyl) acetamide]	–	< 2.5	16.9
[2H]C([2H])([2H])NC(=O)c1ccc2nccc(Oc3c(C)cc(CC(=O)Nc4cnn(C56CC(C5)C6)c4)cc3C)c2c1 [Compound 589, 4-(4-(2-((1-(bicyclo[1.1.1]pentan-1-yl)-1H-pyrazol-4-yl)amino)-2-oxoethyl)-2,6-dimethylphenoxy)-N-(methyl-d3)quinoline-6-carboxamide]	48.6	< 2.5	–
CC(C)(C)c1cc(NC(=O)Cc2ccc(Oc3ccnc4cc(F)c(C(N)=O)cc34)c(C(F)F)c2)n[nH]1 [Compound 619, 4-(4-(2-((5-(tert-butyl)-1H-pyrazol-3-yl)amino)-2-oxoethyl)-2-(difluoromethyl)phenoxy)-7-fluoroquinoline-6-carboxamide]	1.4	< 2.5	–
CNC(=O)C(C)(C)c1ccc2nccc(Oc3cc(F)c(CC(=O)Nc4cnn(C(C)(C)C)c4)cc3C)c2c1 [Compound 569, 2-(4-(4-(2-((1-(tert-butyl)-1H-pyrazol-4-yl)amino)-2-oxoethyl)-5-fluoro-2-methylphenoxy)quinolin-6-yl)-N,2-dimethylpropanamide]	10.4	< 2.5	–
Cc1ccnnc1-c1ccc2nccc(Oc3cc(F)c(CC(=O)Nc4cnn(C(C)(C)C)c4)cc3Cl)c2c1 [Compound 520, N-(1-(tert-butyl)-1H-pyrazol-4-yl)-2-(5-chloro-2-fluoro-4-((6-(4-methylpyridazin-3-yl)quinolin-4-yl)oxy)phenyl)acetamide]	0.7	< 2.5	–
Cc1c(Oc2ccnc3cc(F)c(C(N)=O)cc23)ccc(CC(=O)Nc2cnn(C(C)(C)C)c2)c1C#N [Compound 610, 4-(4-(2-((1-(tert-butyl)-1H-pyrazol-4-yl)amino)-2-oxoethyl)-3-cyano-2-methylphenoxy)-7-fluoroquinoline-6-carboxamide]	2.1	< 2.5	–
CNC(=O)c1cc2c(Oc3ccc(CC(=O)Nc4cnn(C(C)(C)C)c4)c(C#N)c3C)ccnc2cc1F [Compound 611, 4-(4-(2-((1-(tert-butyl)-1H-pyrazol-4-yl)amino)-2-oxoethyl)-3-cyano-2-methylphenoxy)-7-fluoro-N-methylquinoline-6-carboxamide]	0.9	< 2.5	–
Cc1cc(CC(=O)Nc2cnn(C(C)(C)C)c2)cc(F)c1Oc1ccnc2cc(F)c(C(N)=O)cc12 [Compound 598, 4-(4-(2-((1-(tert-butyl)-1H-pyrazol-4-yl)amino)-2-oxoethyl)-2-fluoro-6-methylphenoxy)-7-fluoroquinoline-6-carboxamide]	2.3	< 2.5	–
CNC(=O)C1(c2ccc3nccc(Oc4cc(F)c(CC(=O)Nc5cnn(C(C)(C)C)c5)cc4C)c3c2)CC1 [Compound 571, 1-(4-(4-(2-((1-(tert-butyl)-1H-pyrazol-4-yl)amino)-2-oxoethyl)-5-fluoro-2-methylphenoxy)quinolin-6-yl)-N-methylcyclopropane-1-carboxamide formic acid salt]	4.5	2.9	–
Cc1c(Oc2ccnc3ccc(S(=N)(=O)C(C)(C)C)cc23)ccc(CC(=O)Nc2cnn(C(C)(C)C)c2)c1F (single isomer, unassigned) [Compound 540, N-(1-(tert-butyl)-1H-pyrazol-4-yl)-2-(2-fluoro-3-methyl-4-((6-(2-methylpropan-2-ylsulfonimidoyl)quinolin-4-yl)oxy)phenyl) acetamide]	–	< 2.5	0.5

Now from value to molecule:

IC50 (human NOD2 signaling; [1]) [nM]	IC50 (RIPK2 enzyme) [nM]	IC50 (human NOD2 signaling; HEK-Blue-hNOD2 cells) [nM]	SMILES
3.6	< 2.5	–	Cc1nc(CC(=O)Nc2cnn(C(C)(C)C)c2)ccc1Oc1ccnc2cc(F)c(C(N)=O)cc12 [Compound 612, 4-((6-(2-((1-(tert-butyl)-1H-pyrazol-4-yl)amino)-2-oxoethyl)-2-methylpyridin-3-yl)oxy)-7-fluoroquinoline-6-carboxamide]
0.3	< 2.5	–	Cc1cc(CC(=O)Nc2cc(C(C)(C)C)[nH]n2)cc(C)c1Oc1ccnc2cc(F)c(C(N)=O)cc12 [Compound 618, 4-(4-(2-((5-(tert-butyl)-1H-pyrazol-3-yl)amino)-2-oxoethyl)-2,6-dimethylphenoxy)-7-fluoroquinoline-6-carboxamide]
–	< 2.5	0.2	Cc1c(Oc2ccnc3ccc(S(=N)(=O)C4CCC4)cc23)ccc(CC(=O)Nc2cnn(C(C)(C)C)c2)c1F (single isomer, unassigned) [Compound 542, N-(1-(tert-butyl)-1H-pyrazol-4-yl)-2-(4-((6-(cyclobutanesulf-onimidoyl)quinolin-4-yl)oxy)-2-fluoro-3-methylphenyl) acetamide]
3.2	< 2.5	–	[2H]C([2H])([2H])NC(=O)c1ccc2nccc(Oc3ccc(CC(=O)Nc4cnn(C(C)(C)C)c4)cc3C(F)F)c2c1 [Compound 574, 4-(4-(2-((1-(tert-butyl)-1H-pyrazol-4-yl)amino)-2-oxoethyl)-2-(difluoromethyl)phenoxy)-N-(methyl-d3)quinoline-6-carboxamide]
4	< 2.5	–	CNC(=O)c1ccc2nccc(Oc3ccc(CC(=O)Nc4cnn(C(C)(C)C)c4)cc3C(F)F)c2c1 [Compound 463, 4-(4-(2-((1-(tert-butyl)-1H-pyrazol-4-yl)amino)-2-oxoethyl)-2-(difluoromethyl)phenoxy)-N-methylquinoline-6-carboxamide]
2.2	< 2.5	–	Cc1cc(CC(=O)Nc2cnn(C(C)(C)C)c2)c(F)cc1Oc1ccnc2ccc(-c3nnc(CO)cc3C)cc12 [Compound 521, N-(1-(tert-butyl)-1H-pyrazol-4-yl)-2-(2-fluoro-4-((6-(6-(hydroxymethyl)-4-methylpyridazin-3-yl)quinolin-4-yl)oxy)-5-methylphenyl)acetamide]
